Measured values as given in the supplement of paper PMC3974653.
Where a name gives a salt, the structure may show the parent alone.

Each compound was assayed on MTT (mouse pheochromocytoma) (assay: IC50 of cell viability (ATP content)). Conditions: (24 or 48 h).
How it was run: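 CellTiter-Glo ATP luminescence, read after 15 minutes, was used to assess MTT mouse pheochromocytoma cells treated for 24 or 48 hrs with library compounds (final 0.5 nM to 46 µM, 8 concentrations). The cells had been plated at 5 µl of 200,000 cells/ml per well in white 1536-well plates in DMEM with 5% FBS and 1% horse serum and cultured overnight at 37°C, 5% CO2. Normalisation set positive-control wells to 100% and DMSO wells to 0%. The IC50 was then determined by four-parameter logistic fitting.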
For `NCCNCCNCCNCCN` [Tetraethylenepentamine], the “IC50 of cell viability” value was greater than 46 µM.
In the case of `C1C[C@@H](\C2=N\CCN2)C3=C(C1)C=CC=C3` [Tetrahydrozoline hydrochloride], the “IC50 of cell viability” value is reported as greater than 46 µM.
In the case of `O=C1OC(c2cc(I)c(O)c(I)c2)(c2cc(I)c(O)c(I)c2)c2ccccc21` [Tetraiodophenolphthalein], the “IC50 of cell viability” value is reported as greater than 46 µM.
In the case of `CN(C)C(=S)SSC(=S)N(C)C` [Tetramethylthiuram disulfide], the “IC50 of cell viability” value is reported as greater than 46 µM.
In the case of `COC\1=C\C=C/2[C@H]3CC4=C5C(=C(OC)C=C4)OC1[C@@]25CCN3C` (some centres not stated) [Thebaine], the “IC50 of cell viability” value is reported as greater than 46 µM.
For `CN1CCC(N(Cc2cccs2)c2ccccc2)CC1` [Thenalidine], the “IC50 of cell viability” value was greater than 46 µM.
With `Cn1cnc2c1c(=O)[nH]c(=O)n2C` [Theobromine] the “IC50 of cell viability” value was greater than 46 µM.
For `Cn1c(=O)c2c(ncn2CCOC(=O)C(C)(C)Oc2ccc(Cl)cc2)n(C)c1=O` [Theofibrate], the “IC50 of cell viability” value was greater than 46 µM.
`C[S+](=O)([O-])c1ccc([C@H](O)[C@H](CO)NC(=O)C(Cl)Cl)cc1` [Thiamphenicol] was tested, and the “IC50 of cell viability” value was greater than 46 µM.
With `CCSc1ccc2c(c1)N(CCCN1CCN(C)CC1)c1ccccc1S2.O=C(O)C[C@@H](O)C(=O)O.O=C(O)C[C@@H](O)C(=O)O` [Thiethylperazine malate] the “IC50 of cell viability” value was greater than 46 µM.
`COC1=C(OC)C2=C(CC[C@@H](NC(C)=O)C/3=C/C(=O)/C(=C/C=C23)SC)C=C1O[C@@H]4O[C@@H](CO)[C@@H](O)[C@@H](O)[C@H]4O` [Thiocolchicoside] was tested, and the “IC50 of cell viability” value was greater than 46 µM.
With `O=C(CS)Nc1ccccc1` [Thioglycolic acid anilide] the “IC50 of cell viability” value was greater than 46 µM.
With `CN1CCN(CCCN2c3ccccc3Sc3ccc([S+](=O)([O-])N(C)C)cc32)CC1.C[S+](=O)([O-])O.C[S+](=O)([O-])O` [Thioproperazine dimesylate] the “IC50 of cell viability” value was greater than 46 µM.
In the case of `O=C(O)c1ccccc1S` [Thiosalicylic acid], the “IC50 of cell viability” value is reported as greater than 46 µM.
For `S=P(N1CC1)(N1CC1)N1CC1` [Thiotepa], the “IC50 of cell viability” value was greater than 46 µM.
For `CCN(CC)CCSC(=O)C(c1ccccc1)c1ccccc1` [Thiphenamil hydrochloride], the “IC50 of cell viability” value was greater than 46 µM.
In the case of `CCCCCCCCCCCCCCCC[N+](C)(C)CCN(Cc1ccc(OC)cc1)c1ncccn1` [Thonzonium bromide], the “IC50 of cell viability” value is reported as greater than 46 µM.
With `Cc1ccc(C(C)C)c(O)c1` [Thymol] the “IC50 of cell viability” value was greater than 46 µM.
With `[H][C@]1(CCCN(CC\C=C(\C2=C(C)C=CS2)C3=C(C)C=CS3)C1)C(O)=O` [Tiagabine hydrochloride] the “IC50 of cell viability” value was greater than 46 µM.
With `CCN(CC)CCNC(=O)c1cc([S+](C)(=O)[O-])ccc1OC` [Tiapride hydrochloride] the “IC50 of cell viability” value was greater than 46 µM.
`C[C@@H](C(=O)O)c1ccc(C(=O)c2ccccc2)s1` [Tiaprofenic acid] was tested, and the “IC50 of cell viability” value was greater than 46 µM.
`[Na+].[Na+].CC1(C)S[C@H]2[C@H](NC(=O)[C@H](C([O-])=O)C3=CSC=C3)C(=O)[N@]2[C@H]1C([O-])=O` [Ticarcillin sodium] was tested, and the “IC50 of cell viability” value was greater than 46 µM.
In the case of `O=C(O)COc1ccc(C(=O)c2cccs2)c(Cl)c1Cl` [Ticrynafen], the “IC50 of cell viability” value is reported as greater than 46 µM.
With `CN(C)c1cc(NC(=O)CNC(C)(C)C)c(O)c2c1C[C@H]1C[C@H]3[C@H](N(C)C)C(O)=C(C(N)=O)C(=O)[C@]3(O)C(O)=C1C2=O` [Tigecycline] the “IC50 of cell viability” value was greater than 46 µM.
`CCN[C@@]1(c2cccs2)CCCCC1=O` [Tiletamine hydrochloride] was tested, and the “IC50 of cell viability” value was greater than 46 µM.
With `Cc1ccc(O)c2ncccc12` [Tiliquinol] the “IC50 of cell viability” value was greater than 46 µM.
With `[2H]c1c([2H])c([2H])c2c([nH]c(=S)n2C2CCN(CCCC(=O)c3ccc(F)cc3)CC2)c1[2H]` [Timiperone] the “IC50 of cell viability” value was greater than 46 µM.
For `CC[S+](=O)([O-])CCn1c([N+](=O)[O-])cnc1C` [Tinidazole], the “IC50 of cell viability” value was greater than 46 µM.
In the case of `CCOC(=O)Nc1ccc2c(c1)N(C(=O)CN(C)C)c1ccccc1CC2` [Tiracizine], the “IC50 of cell viability” value is reported as greater than 46 µM.
In the case of `O=C(O)Cc1cc(I)c(Oc2ccc(O)c(I)c2)c(I)c1` [Tiratricol, 3,3',5-triiodothyroacetic acid], the “IC50 of cell viability” value is reported as greater than 46 µM.
With `CCCC[S+](=O)([O-])N[C@@H](Cc1ccc(OCCCCC2CCNCC2)cc1)C(=O)O.Cl.O` [Tirofiban] the “IC50 of cell viability” value was greater than 46 µM.
In the case of `Clc1ccc2nsnc2c1NC1=NCCN1` [Tizanidina], the “IC50 of cell viability” value is reported as greater than 46 µM.
For `NC[C@@H]1O[C@@H](O[C@H]2[C@@H](O)[C@H](O[C@@H]3O[C@@H](CO)[C@H](O)[C@H](N)[C@@H]3O)[C@@H](N)C[C@H]2N)[C@H](N)C[C@@H]1O` [Tobramycin], the “IC50 of cell viability” value was greater than 46 µM.
With `Cc1cccc(C)c1NC(=O)[C@H](C)N` [Tocainide hydrochloride] the “IC50 of cell viability” value was greater than 46 µM.
For `Cc1c(C)c2c(c(C)c1OC(=O)CCC(=O)OCCO)CC[C@](C)(CCC[C@H](C)CCC[C@H](C)CCCC(C)C)O2` [Tocofersolan], the “IC50 of cell viability” value was greater than 46 µM.
For `CCOC(=O)NNc1nncc2ccccc12` [Todralazine hydrochloride], the “IC50 of cell viability” value was greater than 46 µM.
`C1C\N=C(\CC2=CC=CC=C2)N1` [Tolazoline hydrochloride] was tested, and the “IC50 of cell viability” value was greater than 46 µM.
For `Cc1ccc(C(=O)c2ccc(CC(=O)[O-])n2C)cc1.O.O.[Na+]` [Tolmetin sodium salt dihydrate], the “IC50 of cell viability” value was greater than 46 µM.
For `Cc1cccc(N(C)C(=S)Oc2ccc3ccccc3c2)c1` [Tolnaftate], the “IC50 of cell viability” value was greater than 46 µM.
For `Cc1ccc(C(=O)[C@H](C)CN2CCCCC2)cc1` [Tolperisone HCl], the “IC50 of cell viability” value was greater than 46 µM.
In the case of `COc1ccc2c(C(=S)N(C)CC(=O)O)cccc2c1C(F)(F)F` [Tolrestat], the “IC50 of cell viability” value is reported as greater than 46 µM.
For `Cc1ccc(O)c([C@H](CCN(C(C)C)C(C)C)c2ccccc2)c1` [Tolterodina], the “IC50 of cell viability” value was greater than 46 µM.
With `Cc1cc(-n2c(=O)[nH]c(=O)n(C)c2=O)ccc1Oc1ccc([S+](=O)([O-])C(F)(F)F)cc1` [Toltrazuril sulfone] the “IC50 of cell viability” value was greater than 46 µM.
For `Cc1ccccc1` [Toluene], the “IC50 of cell viability” value was greater than 46 µM.
In the case of `Cc1cc2nc3ccc(N(C)C)cc3[s+]c2cc1N` [Toluidine blue], the “IC50 of cell viability” value is reported as greater than 46 µM.
With `CNCCC(Oc1ccccc1C)c1ccccc1` (configuration not stated) [Tomoxetine] the “IC50 of cell viability” value was greater than 46 µM.
In the case of `Cc1cccc(Nc2ccncc2[S+](=O)([O-])NC(=O)NC(C)C)c1` [Torsemide], the “IC50 of cell viability” value is reported as greater than 46 µM.
In the case of `CCCCNc1c(C(=O)OCC)c(C)nc2c1cnn2CC` [Tracazolate hydrochloride], the “IC50 of cell viability” value is reported as greater than 46 µM.
`CCON=C(CC)C/1=C(O)/CC(CC1=O)C2=C(C)C=C(C)C=C2C` (configuration not stated) [Tralkoxydim] was tested, and the “IC50 of cell viability” value was greater than 46 µM.
In the case of `COc1cccc([C@@]2(O)CCCC[C@@H]2CN(C)C)c1` [Tramadolum], the “IC50 of cell viability” value is reported as greater than 46 µM.
`CCOC(=O)[C@H](CCc1ccccc1)N[C@@H](C)C(=O)N1[C@H](C(=O)O)C[C@H]2CCCC[C@@H]21` [Trandolapril] was tested, and the “IC50 of cell viability” value was greater than 46 µM.
In the case of `NCC1CCC(C(=O)O)CC1` (configuration not stated) [Tranexamic acid], the “IC50 of cell viability” value is reported as greater than 46 µM.
With `COc1ccc(/C=C/C(=O)Nc2ccccc2C(=O)O)cc1OC` [Tranilast] the “IC50 of cell viability” value was greater than 46 µM.
`OCCOCCN1CCN(C(c2ccccc2)c2ccc(Cl)cc2)CC1` (configuration not stated) [Tranquizine] was tested, and the “IC50 of cell viability” value was greater than 46 µM.
For `N[C@@H]1C[C@H]1c1ccccc1` [Tranylcypromine hydrochloride], the “IC50 of cell viability” value was greater than 46 µM.
With `ClC1=CC(=CC=C1)N2CCN(CCCN3\N=C4\C=C/C=C\N4C3=O)CC2` [Trazodone hydrochloride] the “IC50 of cell viability” value was greater than 46 µM.
With `CC(=O)OCC(COC(C)=O)OC(C)=O` [Triacetin] the “IC50 of cell viability” value was greater than 46 µM.
With `CC(C)(C)C(O)C(Oc1ccc(Cl)cc1)n1cncn1` (configuration not stated) [Triadimenol] the “IC50 of cell viability” value was greater than 46 µM.
For `CC1(C)O[C@@H]2C[C@H]3[C@@H]4CCC/5=C/C(=O)/C=C\[C@]5(C)[C@@]4(F)[C@@H](O)C[C@]3(C)[C@@]2(O1)C(=O)CO` [Triamcinolone acetonide], the “IC50 of cell viability” value was greater than 46 µM.
For `CC(=O)OCC(=O)[C@@]1(O)[C@@H](C[C@H]2[C@@H]3CC\C4=C\C(=O)\C=C/[C@]4(C)[C@@]3(F)[C@@H](O)C[C@]12C)OC(C)=O` [Triamcinolone diacetate], the “IC50 of cell viability” value was greater than 46 µM.
In the case of `CC(C)(C)CC(=O)OCC(=O)[C@@]12OC(C)(C)O[C@@H]1C[C@H]1[C@@H]3CCC4=CC(=O)C=C[C@]4(C)[C@@]3(F)[C@@H](O)C[C@]12C` [Triamcinolone hexacetonide], the “IC50 of cell viability” value is reported as greater than 46 µM.
With `Nc1nc(N)c2nc(-c3ccccc3)c(N)nc2n1` [Triamterene] the “IC50 of cell viability” value was greater than 46 µM.
`CCO[C@H]1O[C@@H]([C@H](COCc2ccccc2)OCc2ccccc2)[C@@H](OCc2ccccc2)[C@@H]1O` [Tribenoside] was tested, and the “IC50 of cell viability” value was greater than 46 µM.
With `CCCCCCCC(=O)OCC(COC(=O)CCCCCCC)OC(=O)CCCCCCC` [Tricaprylin] the “IC50 of cell viability” value was greater than 46 µM.
In the case of `COP(=O)(OC)C(O)C(Cl)(Cl)Cl` (configuration not stated) [Trichlorfon], the “IC50 of cell viability” value is reported as greater than 46 µM.
`N[S+](=O)([O-])c1cc2c(cc1Cl)N[C@@H](C(Cl)Cl)N[S+]2(=O)[O-]` [Trichlormethiazide] was tested, and the “IC50 of cell viability” value was greater than 46 µM.
With `O=C(O)C(Cl)(Cl)Cl` [Trichloroacetic acid] the “IC50 of cell viability” value was greater than 46 µM.
